Legend:
[1] = target: Beta-2 adrenergic receptor (Homo sapiens, UniProt P07550); test: DRUGMATRIX: Adrenergic beta2 radioligand binding (ligand: [3H] CGP-12177); format: cell membranes, Membrane; conditions: cho; Not Active = under 50% inhibition at 10 µM
[2] = target: T1, 5-hydroxytryptamine receptor 2C (Homo sapiens, UniProt P28335); test: DRUGMATRIX: Serotonin (5-Hydroxytryptamine) 5-HT2C radioligand binding (ligand: [3H] Mesulergine); format: cell membranes, CHO-K1, Membrane; conditions: Not Active = under 50% inhibition at 10 µM; for Ki: read-out: Ki
T1 sequence (P28335 whole entry): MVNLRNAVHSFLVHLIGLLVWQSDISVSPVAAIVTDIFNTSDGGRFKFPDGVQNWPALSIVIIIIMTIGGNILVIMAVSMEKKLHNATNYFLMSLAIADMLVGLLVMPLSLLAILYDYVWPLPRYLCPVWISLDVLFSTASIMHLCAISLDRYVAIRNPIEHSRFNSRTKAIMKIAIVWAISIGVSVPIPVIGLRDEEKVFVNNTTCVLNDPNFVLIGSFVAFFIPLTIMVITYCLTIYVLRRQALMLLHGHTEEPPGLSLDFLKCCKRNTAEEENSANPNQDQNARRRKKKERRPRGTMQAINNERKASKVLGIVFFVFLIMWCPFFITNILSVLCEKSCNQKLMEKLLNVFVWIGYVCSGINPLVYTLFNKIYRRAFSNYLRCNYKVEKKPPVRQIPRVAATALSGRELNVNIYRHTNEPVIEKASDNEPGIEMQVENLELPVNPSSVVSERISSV

[3] = DRUGMATRIX: GABAA, Muscimol, Central radioligand binding (ligand: [3H] Muscimol); format: cell membranes, Rattus norvegicus, Wistar, Brain, Membrane; conditions: Not Active = under 50% inhibition at 10 µM
[4] = target: T2, 3-hydroxy-3-methylglutaryl-coenzyme A reductase (Homo sapiens, UniProt P04035); set-up: species or system Escherichia coli;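 note: enzyme inhibition assay of HMG-CoA reductase using radiolabeled [14C]HMG-CoA as substrate; in other assays of this panel Not Active means under 50% inhibition at 10 µM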
T2 sequence (P04035 whole entry): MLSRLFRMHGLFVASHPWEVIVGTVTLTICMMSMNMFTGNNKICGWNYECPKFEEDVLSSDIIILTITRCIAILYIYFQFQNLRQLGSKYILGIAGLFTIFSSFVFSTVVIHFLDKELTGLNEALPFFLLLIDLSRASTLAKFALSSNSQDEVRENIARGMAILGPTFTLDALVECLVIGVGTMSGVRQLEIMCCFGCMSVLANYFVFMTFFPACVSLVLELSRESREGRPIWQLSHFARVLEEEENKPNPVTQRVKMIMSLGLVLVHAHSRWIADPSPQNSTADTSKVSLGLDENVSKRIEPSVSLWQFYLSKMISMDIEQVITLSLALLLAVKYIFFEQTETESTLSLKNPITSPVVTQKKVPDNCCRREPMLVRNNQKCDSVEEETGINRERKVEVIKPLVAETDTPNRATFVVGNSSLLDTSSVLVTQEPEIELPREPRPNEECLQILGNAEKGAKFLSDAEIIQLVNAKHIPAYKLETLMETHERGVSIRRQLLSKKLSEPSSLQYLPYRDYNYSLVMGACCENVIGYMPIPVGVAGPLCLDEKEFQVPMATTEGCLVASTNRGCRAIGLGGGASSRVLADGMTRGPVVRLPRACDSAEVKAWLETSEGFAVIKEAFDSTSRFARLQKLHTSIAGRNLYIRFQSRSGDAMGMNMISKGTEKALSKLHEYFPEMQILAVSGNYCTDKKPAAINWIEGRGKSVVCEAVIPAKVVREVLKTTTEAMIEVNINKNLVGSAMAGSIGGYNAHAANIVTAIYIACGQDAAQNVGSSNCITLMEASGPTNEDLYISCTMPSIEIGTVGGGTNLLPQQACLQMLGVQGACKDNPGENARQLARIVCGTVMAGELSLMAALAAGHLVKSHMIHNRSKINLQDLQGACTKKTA

[5] = target: T3, Polyunsaturated fatty acid lipoxygenase ALOX15 (Oryctolagus cuniculus, UniProt P12530); test: biochemical; format: tissue-based, Reticulocytes;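 note: inhibition of 15-lipoxygenase enzyme activity measured with linoleic acid as the substrate; in other assays of this panel Not Active means under 50% inhibition at 10 µM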
T3 sequence (P12530 whole entry): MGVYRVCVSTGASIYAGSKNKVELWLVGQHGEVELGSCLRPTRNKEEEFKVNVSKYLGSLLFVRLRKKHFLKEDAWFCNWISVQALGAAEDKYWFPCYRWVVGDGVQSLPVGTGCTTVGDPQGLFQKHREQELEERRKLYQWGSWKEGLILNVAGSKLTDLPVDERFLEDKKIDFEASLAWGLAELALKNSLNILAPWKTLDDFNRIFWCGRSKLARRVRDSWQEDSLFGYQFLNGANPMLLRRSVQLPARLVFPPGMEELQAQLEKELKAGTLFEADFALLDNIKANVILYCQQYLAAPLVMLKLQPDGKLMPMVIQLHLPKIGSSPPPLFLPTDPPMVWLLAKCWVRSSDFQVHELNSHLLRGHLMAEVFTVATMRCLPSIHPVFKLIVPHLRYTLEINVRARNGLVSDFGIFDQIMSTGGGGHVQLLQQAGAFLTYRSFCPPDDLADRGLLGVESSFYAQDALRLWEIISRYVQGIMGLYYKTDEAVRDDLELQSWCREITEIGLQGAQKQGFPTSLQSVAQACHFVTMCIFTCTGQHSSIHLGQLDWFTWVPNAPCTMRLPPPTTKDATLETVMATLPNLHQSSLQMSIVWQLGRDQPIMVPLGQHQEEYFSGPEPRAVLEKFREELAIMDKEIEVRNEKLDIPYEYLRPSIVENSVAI

[6] = target: Kappa-type opioid receptor (Homo sapiens, UniProt P41145); test: DRUGMATRIX: Opiate kappa (OP2, KOP) radioligand binding (ligand: [3H] Diprenorphine); format: cell membranes, HEK293, Membrane; conditions: hek293; Not Active = under 50% inhibition at 10 µM
Sequence of Kappa-type opioid receptor (P41145 whole entry): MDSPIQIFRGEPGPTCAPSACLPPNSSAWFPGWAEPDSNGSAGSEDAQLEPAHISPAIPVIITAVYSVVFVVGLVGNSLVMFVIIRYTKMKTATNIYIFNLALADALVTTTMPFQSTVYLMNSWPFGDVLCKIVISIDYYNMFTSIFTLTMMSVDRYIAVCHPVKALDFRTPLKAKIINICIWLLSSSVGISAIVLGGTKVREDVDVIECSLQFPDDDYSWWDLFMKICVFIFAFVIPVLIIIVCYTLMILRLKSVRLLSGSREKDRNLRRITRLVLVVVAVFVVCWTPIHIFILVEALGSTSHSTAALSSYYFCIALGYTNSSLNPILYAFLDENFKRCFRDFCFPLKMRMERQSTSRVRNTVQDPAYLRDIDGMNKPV

Sequence of Beta-2 adrenergic receptor (P07550 whole entry): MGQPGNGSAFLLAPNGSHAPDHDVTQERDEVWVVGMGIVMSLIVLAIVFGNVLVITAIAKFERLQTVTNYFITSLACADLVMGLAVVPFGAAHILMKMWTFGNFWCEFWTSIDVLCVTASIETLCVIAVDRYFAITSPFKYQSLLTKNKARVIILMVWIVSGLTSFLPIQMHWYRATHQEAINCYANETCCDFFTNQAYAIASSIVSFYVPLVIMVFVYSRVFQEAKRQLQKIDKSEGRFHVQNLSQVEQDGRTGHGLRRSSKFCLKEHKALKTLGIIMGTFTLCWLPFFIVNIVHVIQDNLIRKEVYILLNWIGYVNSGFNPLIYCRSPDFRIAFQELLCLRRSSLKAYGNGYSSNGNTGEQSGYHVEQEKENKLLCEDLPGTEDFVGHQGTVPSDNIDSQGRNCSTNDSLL

Row | SMILES | IC50 [1] | IC50 ([2]; cho-k1) | IC50 [3] | Ki [3] | IC50 [4] | IC50 ([5]; reticulocytes) | IC50 [6] | IC50 ([2]; read-out: IC50) [nM] | Ki [2] [nM] | IC50 ([5]; read-out: IC50) [nM]
1 | C[C@H]1O[C@@H](O[C@H]2[C@@H](O)C[C@H](O[C@H]3[C@@H](O)C[C@H](O[C@H]4CC[C@@]5(C)[C@H](CC[C@@H]6[C@@H]5C[C@@H](O)[C@]5(C)[C@@H](C7=CC(=O)OC7)CC[C@]65O)C4)O[C@@H]3C)O[C@@H]2C)C[C@H](O)[C@@H]1O [DIGOXIN] | Not Active | Not Active | Not Active | Not Active | Not Active | Not Active | Not Active | – | – | –
2 | CC(C)[C@@]1(NC(=O)[C@@H]2C[C@@H]3c4cccc5[nH]cc(c45)C[C@H]3N(C)C2)O[C@@]2(O)[C@@H]3CCCN3C(=O)[C@H](Cc3ccccc3)N2C1=O.CS(=O)(=O)O [DIHYDROERGOCRISTINE MESYLATE] | Not Active | – | Not Active | Not Active | Not Active | Not Active | Not Active | 239 | 125 | –
3 | CC(=O)O[C@@]12CO[C@@H]1C[C@H](O)[C@@]1(C)C(=O)[C@H](O)C3=C(C)[C@@H](OC(=O)[C@H](O)[C@@H](NC(=O)OC(C)(C)C)c4ccccc4)C[C@@](O)([C@@H](OC(=O)c4ccccc4)[C@H]21)C3(C)C.O.O.O [DOCETAXEL] | Not Active | Not Active | Not Active | Not Active | Not Active | Not Active | Not Active | – | – | –
4 | C[C@H]1c2cccc(O)c2C(=O)C2=C(O)[C@]3(O)C(=O)C(C(N)=O)=C(O)[C@@H](N(C)C)[C@@H]3[C@@H](O)[C@@H]21.O [DOXYCYCLINE] | Not Active | Not Active | Not Active | Not Active | Not Active | Not Active | Not Active | – | – | –
5 | O=C(CCCN1CC=C(n2c(=O)[nH]c3ccccc32)CC1)c1ccc(F)cc1 [DROPERIDOL] | Not Active | – | Not Active | Not Active | Not Active | Not Active | Not Active | 454 | 238 | –
6 | CC(C)[C@H]1C(=O)N2CCC[C@H]2[C@]2(O)O[C@](NC(=O)[C@@H]3C=C4c5cccc6[nH]cc(c56)C[C@H]4N(C)C3)(C(C)C)C(=O)N12 [ERGOCORNINE] | Not Active | – | Not Active | Not Active | Not Active | Not Active | Not Active | 104 | 55 | –
7 | C[C@]12CC[C@@H]3c4ccc(O)cc4CC[C@H]3[C@@H]1CCC2=O [ESTRONE] | Not Active | Not Active | Not Active | Not Active | Not Active | – | Not Active | – | – | 6590
8 | OC(Cn1cncn1)(Cn1cncn1)c1ccc(F)cc1F [FLUCONAZOLE] | Not Active | Not Active | Not Active | Not Active | Not Active | Not Active | Not Active | – | – | –
9 | CC(C)C(=O)Nc1ccc([N+](=O)[O-])c(C(F)(F)F)c1 [FLUTAMIDE] | Not Active | Not Active | Not Active | Not Active | Not Active | Not Active | Not Active | – | – | –
10 | N=C(N)NCCN1CCCCCCC1 [GUANETHIDINE] | Not Active | Not Active | Not Active | Not Active | Not Active | Not Active | Not Active | – | – | –
11 | CC1(C)O[C@@H]2C[C@H]3[C@@H]4CCC5=CC(=O)CC[C@]5(C)[C@@]4(F)[C@@H](O)C[C@]3(C)[C@]2(C(=O)CCl)O1 [HALCINONIDE] | Not Active | Not Active | Not Active | Not Active | Not Active | Not Active | Not Active | – | – | –
12 | O=c1[nH]c(=O)n([C@H]2C[C@H](O)[C@@H](CO)O2)cc1I [IDOXURIDINE] | Not Active | Not Active | Not Active | Not Active | Not Active | Not Active | Not Active | – | – | –
13 | CC1Cc2ccccc2N1NC(=O)c1ccc(Cl)c(S(N)(=O)=O)c1 (stereo not given) [INDAPAMIDE] | Not Active | Not Active | Not Active | Not Active | Not Active | – | Not Active | – | – | 2920
14 | Nc1nc(N)nc(-c2cc(Cl)ccc2Cl)n1.O=C(O)/C=C\C(=O)O [IRSOGLADINE MALEATE] | Not Active | Not Active | Not Active | Not Active | Not Active | Not Active | Not Active | – | – | –
15 | CCC(C)n1ncn(-c2ccc(N3CCN(c4ccc(OCC5COC(Cn6cncn6)(c6ccc(Cl)cc6Cl)O5)cc4)CC3)cc2)c1=O (stereo not given) [ITRACONAZOLE] | Not Active | Not Active | Not Active | Not Active | Not Active | Not Active | Not Active | – | – | –
16 | CCCCN1CCCC[C@H]1C(=O)Nc1c(C)cccc1C [LEVOBUPIVACAINE] | Not Active | Not Active | Not Active | Not Active | Not Active | Not Active | Not Active | – | – | –
17 | CCCCc1nc(Cl)c(CO)n1Cc1ccc(-c2ccccc2-c2nnn[nH]2)cc1 [LOSARTAN] | Not Active | Not Active | Not Active | Not Active | Not Active | Not Active | Not Active | – | – | –
18 | Sc1ncnc2nc[nH]c12 [MERCAPTOPURINE ANHYDROUS] | Not Active | Not Active | Not Active | Not Active | Not Active | Not Active | Not Active | – | – | –
19 | C[C@](N)(Cc1ccc(O)c(O)c1)C(=O)O [METHYLDOPA] | Not Active | Not Active | Not Active | Not Active | Not Active | – | Not Active | – | – | 2130
20 | C[C@]12CCC(=O)C=C1CC[C@@H]1[C@@H]2CC[C@@]2(C)[C@H]1CC[C@]2(C)O [METHYLTESTOSTERONE] | Not Active | Not Active | Not Active | Not Active | Not Active | Not Active | Not Active | – | – | –
21 | Cc1ccccc1N1C(=O)c2cc(S(N)(=O)=O)c(Cl)cc2NC1C (stereo not given) [METOLAZONE] | Not Active | Not Active | Not Active | Not Active | Not Active | Not Active | Not Active | – | – | –
